Test [1] has as its system noise-exposed guinea pigs. Kind of test: ABR threshold shifts, delayed dosing after noise trauma. In kind it is in vivo, guinea pig. As for the experimental part:
Guinea pigs were exposed to 120 dB, 4 kHz noise for 6 hr. The compound of Formula II was administered beginning 2 hours to 1 day prior to noise trauma, or 1 day after noise trauma, or 4 days after noise trauma. Dosing continued for 2 weeks after noise exposure. As described above, cochleas were prepared and numbers of preserved and lost inner hair cells (IHCs) and outer hair cells of different rows (OHC1, OHC2, OHC3) were counted 2 weeks post noise trauma.
ABRs were determined 1 day before noise trauma (baseline values) and 2 weeks post noise trauma. […] Thresholds were determined at frequencies 2, 4, 8, 16 and 32 kHz from a set of responses at varying intensities with 5 dB intervals and 1000 sweeps near the threshold. ABRs were measured with System II hardware and BioSig software. Ketamine (40 mg/kg) and xylazine (10 mg/kg) were used for anaesthesia.

Test [2] concerns hair cells of cochlear explants. The test can be described thus: TUNEL staining of hair cells in neomycin-exposed cochlear explants. Type of test: cell-based, rat. The note with it: 500 nM Formula II coincubated with neomycin; n=5 explants. As for the experimental part:
Six, 12 and 24 hr after adding 100 μM neomycin to the medium, cochlear cultures were fixed with 4% paraformaldehyde in PBS for 30 min. The specimens were prepared for 5 um-thick paraffin sections. They were stained with a TUNEL-kit, mounted in Vectashield containing DAPI nuclear counterstain (Vector, Burlingame, Calif.), and viewed under an Olympus Provis microscope (Tokyo, Japan) using epifluorescence. In addition to TUNEL-staining, DNA fragmentation was verified under UV illumination using DAPI counterstain.

The subject of test [3] is pigmented guinea pigs exposed to traumatic octave band noise. The test can be described thus: ABR hearing thresholds after noise trauma (Example 1). In kind it is in vivo. The note with it: guinea pig; 1 mg/kg s.c. daily from 24 h before noise to day 21; noise 4.0 kHz 125 dB SPL 105 min; across test frequencies; 21 days after exposure. The protocol: Baseline hearing of 8 pigmented guinea pigs (200-300 g) was tested by ABR as described below. ABR is a measure of hearing function. Four animals were treated with daily subcutaneous (s.c.) injections of the compound of Formula II, 1 mg/kg, starting 24 hours prior to noise trauma and lasting until 21 days after exposure to the noise trauma. Four animals served as controls and received only vehicle (the fourth animal died under anaesthesia). All the animals were exposed to traumatic octave band noise, center frequency 4.0 kHz, 125 dB SPL (sound pressure level) for 105 min.
ABR thresholds were again determined 21 days after exposure to the noise trauma. ABR thresholds were measured with System II hardware and BioSig software (Tucker Davis Technology). Stimulus with 1 ms cos2 rise and fall and 18 ms plateau was presented with Beyer earphone connected to speculum (placed in the meatus of the external ear canal) at a rate of 20 Hz. Stimulus was calibrated against a Bruel & Kjaer 4134 microphone connected to a Bruel & Kjaer 2203 sound level meter. A Grass P15 preamplifier and custom amplifier provided gain of 10^5 and filtering of 0.3 to 3.0 kHz. Two responses were obtained at each intensity level. Thresholds were determined for the frequencies 2, 4, 8, 16 and 32 kHz from a set of responses at varying intensities with 5 dB intervals and 1000 sweeps near threshold.

The subject of test [4] is hair cells of the organ of Corti. Kind of test: TUNEL staining of apoptotic hair cells in noise-exposed cochleas. Particulars: first 6 days after noise exposure. In kind it is in vivo, guinea pig. The protocol:
(§1) Adult Dunkin-Hartley female guinea pigs (weight 300-500 g) were exposed, 4 animals at a time, to octave band noise, with a center frequency of 4.0 kHz, 120 dB SPL for 6 hr as described in Example 1. Fragmented hair cell nuclei were assessed from noise-exposed cochleas immediately and 1, 2, 4, 6, 8 and 14 days after noise exposure. Noise-exposed and nonexposed guinea pigs were decapitated under deep anesthesia and inner ears were perilymphatically perfused with 4% paraformaldehyde in PBS, and processed for […] paraffin-embedded sections (Ylikoski et al., Hear Res 65:69-78, 1993; Ylikoski et al., Hear Res 124:17-26, 1998). TUNEL-staining was performed as described below. DNA fragmentation was also verified by DAPI nuclear counterstain (see below). Further, trauma-induced nuclear fragmentation was verified by morphological analysis of contralateral cochleas that were perilymphatically fixed with 2.5% glutaraldehyde in 0.1M phosphate buffer, pH 7.4, postfixed with 1% osmium tetroxide, embedded in epoxy resin, and prepared for surface preparations (see below). Selected cochlear segments were then cut in transverse and horizontal planes to semi-thin (1.0 mm) sections that were stained with 1% toluidine blue. Analysis was done under an Olympus Provis microscope equipped with Nomarski optics. […]

In test [5] the test system is cochlear ganglion neurons. The test can be described thus: Survival of dissociated cochlear neurons in culture. Type of test: cell-based. Particulars: E21 rat cochlear ganglia; Formula II 500 nM; NT-3 2 ng/ml in parallel cultures; 48 hr. As for the experimental part: Neuronal enriched cultures from embryonic day 21 (E21) rat cochlear ganglia were prepared as previously described (Ylikoski et al., Hear. Res., 1998, 124:17-26). The cultures were maintained in F14 medium (Life Technologies, Gaithesburg, Md.) containing 10% horse serum (Life Technologies). […] After 48 hr, cultures were fixed with 4% paraformaldehyde and responses were assessed under a phase contrast microscope. Surviving neurons were distinguished by a phase-bright cell body and definite neurites.

For test [6], the system named is noise-exposed guinea pigs. Kind of test: ABR threshold shifts after noise exposure (Example 2). In kind it is in vivo, guinea pig. Particulars: day 6 postexposure; n=11; P<0.05 at 4 and 8 kHz, P<0.01 at 16 kHz. As for the experimental part: as §1, with “below).” for “below). Selected cochlear segments were then cut in transverse and horizontal planes to semi-thin (1.0 mm) sections that were stained with 1% toluidine blue. Analysis was done under an Olympus Provis microscope equipped with Nomarski optics.”
Auditory brainstem responses (ABRs) were measured 2 days before noise exposure, and 2, 6 and 14 days after exposure under anesthesia (xylazine 10 mg/kg and ketamine 40 mg/kg). […] Hearing threshold was determined from a set of responses at varying intensities. […]

The record followed here is patent US6448283B1, “Methods for preventing/treating damage to sensory hair cells and cochlear neurons” (Cephalon, Inc., priority 1998, dated 2002).

With `CCSCc1ccc2c(c1)c1c3c(c4c5cc(CSCC)ccc5n5c4c1n2C1C[C@](O)(C(=O)OC)[C@]5(C)O1)CNC3=O` [Formula II], in test [1] (Formula II begun prior to the lesion, noise 120 dB 4 kHz 6 hr, 2 weeks post noise), the “average threshold shift of control animals greater than that of treated animals” value is reported as 20-40 dB. Besides, the “ABR threshold shift versus vehicle-treated, noise-exposed controls” value in test [1] (Formula II-treated animals, 2 weeks post noise) is listed as “less threshold shift at all frequencies tested”. For the same compound, the “ABR threshold shift, delayed administration” value in test [1] (administration begun 1 or 4 days after exposure to noise) is “Decreased threshold shifts”. Moreover, the “TUNEL-labeling in hair cells” value in test [2] is “prevented”. Moreover, the ABR threshold shift in test [3] is reported as 20-40 dB. Moreover, in test [4], the “amount of apoptotic hair cell loss versus control cochleas” value is “less”. Also, the “survival of cochlear neurons” value in test [5] is “as efficacious as NT-3”. Besides, in test [6], the “ABR threshold shifts versus noise-exposed control group” value was “significantly less”.
